Data from PMC6611794, “Development of a high-throughput strategy for discovery of potent analogues of antibiotic lysocin E” (Nature Communications, 2019).
≈ marks a conversion by molar mass, not a printed value. Read-outs that look alike come from different tables or passages of the source. Blank lines part the entries; values can stand above or below the compound they belong to. Where a SMILES comes first, the peptide text is derived from it. Bridges are numbered along the chain shown (N, C = ends). [ ]: non-standard residue; d: D form. The star is where a group is joined. Hexanoyl(3R-OH,5-Me) = CC(C)C[C@@H](O)CC(=O)*; dNMeF = CN[C@H](Cc1ccccc1)C(=O)O

Experiments:
[1] = test system: Staphylococcus aureus Smith ATCC 13709; assay type: cell-based
Procedure: (§1) Antimicrobial activity assay of bead-derived peptides. […]
(§2) plate was added DMSO (1 µL/well). […]
(§3) precipitation of the grown cells was examined.
(§4) Evaluation of antimicrobial spectra of peptides. The MIC assay was performed according to the Clinical and Laboratory Standards Institute protocols. The antimicrobial activities of the peptides were measured […]
(§5) Soy Broth or Müller Hinton Broth agar plates. Bacterial inoculum was prepared by direct suspension of the […]
(§6) and incubated at 37 °C for 18 h. […]
(§7) inhibited growth of bacteria.

[2] = test system: Staphylococcus aureus RN4220
Procedure: ×105 colony forming units (CFU) , 21 g/L Müller Hinton Broth (Difco), 5 0 mg/L Ca2+ (adjusted with CaCl2• 2H2O), and 25 mg/L Mg 2+ (adjusted with MgCl 2•6H2O)]. […]
Evaluation of antimicrobial spectra of peptides. The MIC assay was performed according to the Clinical and Laboratory Standards Institute protocols. The antimicrobial activities of the peptides were measured using the broth microdilution method.1 Serial dilutions of peptides were prepared in cation adjusted Müller Hinton Broth. Each dilution (100 µL) was dispensed to each well of the round-bottom plate to obtain final concentrations ranging from 64 µg/m L to 0.0075 µg/m L. Bacteria were grown at 37 °C overnight on Tryptic Soy Broth or Müller Hinton Broth agar plates. Bacterial inoculum was prepared by direct suspension of the colonies in 0.9% saline, and adjusted to obtain OD 625 0.08–0.13 using a spectrophotometer UV -1280 (Shimadzu). The resultant suspension was diluted with cation adjusted Müller Hinton Broth (1/20). The resultant mixture (10 µL) was inoculated to each well of the plates (approximately 5 ×10^4 CFU/well ), mixed, and incubated at 37 °C for 18 h. The MIC value was determined as the minimum concentration that inhibited growth of bacteria. To evaluate the antimicrobial activities of peptides in the presence of serum, 10% bovine calf serum in cation adjusted Müller Hinton Broth was used.

[3] = test system: S. aureus; assay type: cell-based, Staphylococcus aureus; conditions: 18 h
Procedure: as §1, §2, §3, §4, §5, §6, §7

[4] = design: method as in our previous studies; conditions: ref our previous studies, cited from earlier work
Description: (§8) Lysocin E (1, Fig. 1a) was isolated from Lysobacter sp. as a new antibiotic and structurally determined to be a 37-membered depsipeptide (molecular weight = 1618 Da) with an N-methylated amide and ester linkages. The macrocyclic core of 12 residues contains four different non-proteinogenic D-amino acids (D-Arg-2/7, N-Me-D-Phe-5, D-Gln-9, D-Trp-10) and is appended with (R)-3-hydroxy-5-methylhexanamide.

[5] = test system: MRSA; design: method as in PMID 25485686; conditions: cited from earlier work
Description: as §8

[6] = test system: Listeria monocytogenes 10403S; assay type: cell-based; conditions: 18 h
Procedure: as §1, §2, §3, §4, §5, §6, §7

[7] = test system: Bacillus cereus JCM20037; assay type: cell-based; conditions: JCM20037, 18 h
Procedure: as §1, §2, §3, §4, §5, §6, §7

[8] = test system: Bacillus subtilis JCM2499; assay type: cell-based; conditions: JCM2499, 18 h
Procedure: as §1, §2, §3, §4, §5, §6, §7

SMILES: CC[C@H](C)[C@@H]1NC(=O)[C@@H](Cc2c[nH]c3ccccc23)NC(=O)[C@@H](CCC(N)=O)NC(=O)[C@H](CCC(=O)O)NC(=O)[C@@H](CCCNC(=N)N)NC(=O)[C@H](CC(C)C)NC(=O)[C@@H](Cc2ccccc2)N(C)C(=O)CNC(=O)[C@H](CO)NC(=O)[C@@H](CCCNC(=N)N)NC(=O)[C@@H](NC(=O)C[C@H](O)CC(C)C)[C@@H](C)OC(=O)[C@H]([C@@H](C)O)NC1=O [Peptide 1, Lysocin E] ({Hexanoyl(3R-OH,5-Me)}-T[dR]SG[dNMeF]L[dR]E[dQ][dW]IT; ester 1-C)
decrease of MIC by adding 10% BCS [1]: 64 fold
MIC ([1]; 10% BCS (+)): 0.0625 µg/mL (≈ 0.0386 µM)
MIC ([1]; ATCC 13709, 18 h): 2.0 µg/mL (≈ 1.24 µM)
MIC ([2]; 10% BCS (+)): 0.125 µg/mL (≈ 0.0773 µM)
MIC ([2]; BCS free): 4.0 µg/mL (≈ 2.47 µM)
original MIC value against S. aureus [3]: 2 to 4 µg/mL
Kd ([4]; 1:1 complex with MK-4, in vitro): 4.5 µM
affinity toward ubiquinone-10 ([4]; in vitro): no affinity
minimum inhibitory concentration (MIC) against MRSA [5]: 4 µg/mL (≈ 2.47 µM)

MIC [6]: 64 µg/mL (≈ 37.9 µM)
SMILES: CC(C)C[C@@H](O)CC(=O)N[C@@H]1C(=O)N[C@H](CCCNC(=N)N)C(=O)N[C@@H](C)C(=O)NCC(=O)N(C)[C@H](Cc2ccccc2)C(=O)N[C@@H](CC(C)C)C(=O)N[C@H](CCCNC(=N)N)C(=O)N[C@@H](CCC(=O)O)C(=O)N[C@H](Cc2ccc(O)cc2)C(=O)N[C@H](Cc2c[nH]c3ccccc23)C(=O)N[C@@H](Cc2ccc(O)cc2)C(=O)N[C@@H]([C@@H](C)O)C(=O)O[C@@H]1C [Peptide A15] ({Hexanoyl(3R-OH,5-Me)}-T[dR]AG[dNMeF]L[dR]E[dY][dW]YT; ester 1-C)

MIC [7]: 16 µg/mL (≈ 9.52 µM)
MIC [8]: 16 µg/mL (≈ 9.52 µM)
SMILES: CC[C@H](C)[C@@H]1NC(=O)[C@@H](Cc2c[nH]c3ccccc23)NC(=O)[C@@H](Cc2ccc(O)cc2)NC(=O)[C@H](CCC(=O)O)NC(=O)[C@@H](CCCNC(=N)N)NC(=O)[C@H](CC(C)C)NC(=O)[C@@H](Cc2ccccc2)N(C)C(=O)CNC(=O)[C@H](CC(=O)O)NC(=O)[C@@H](CCCNC(=N)N)NC(=O)[C@@H](NC(=O)C[C@H](O)CC(C)C)[C@@H](C)OC(=O)[C@H]([C@@H](C)O)NC1=O [Peptide A17] ({Hexanoyl(3R-OH,5-Me)}-T[dR]DG[dNMeF]L[dR]E[dY][dW]IT; ester 1-C)
